Paper PMC12372887, “Mechanism and cellular actions of the potent AMPK inhibitor BAY-3827” (Science Advances, 2025)

Tested on: mouse primary adipocytes
Test: Immunoblot of signaling in primary adipocytes
Format: cell-based
Protocol: Epidydimal adipose tissue excised from mice was digested with collagenase (1 mg/ml) in Krebs-Ringer medium (120 mM NaCl, 4.7 mM KCl, 1.2 mM KH2PO4, and 1.2 mM MgSO4) containing 25 mM Hepes (pH 7.4), 200 nM adenosine, 2 mM glucose, and 3% (w/v) bovine serum albumin (BSA) (KRH buffer) at 37°C in a shaking incubator. Adipocytes were isolated by filtering and washing in KRH buffer. For preparation of protein extracts for Western blot, adipocyte suspensions [0.7 to 1 ml of 10% (v/v) cells] were preincubated with BAY-3827 or BAY-974 compounds or 0.1% DMSO for 1 hour at 37°C in a shaking (80 rpm) water bath followed by either 1 hour of incubation with 10 μM MK-8722 or 30 min with 0.1 nM insulin (Novo Nordisk) in KRH buffer, as indicated in the figure legends. […] Lysates were centrifuged at 13,000g for 15 min (4°C), and supernatant protein concentration was determined by the Bradford assay. […]
For adipocyte experiments, cell lysates (25 μg protein) were heated at 95°C for 3 min in LDS sample buffer, subjected to polyacrylamide gel electrophoresis on precast Novex gradient gels (Thermo Fisher Scientific) and electrotransferred to nitrocellulose membranes. […] Luminescence signals were visualized in a ChemiDoc XRS+ (Bio-Rad) and quantified by densitometry using the software Image LabTM 5.1 (Bio-Rad). […]

Q: What does the source list for `CCc1ccccc1C(=O)Nc1n[nH]c2c(C)c(F)c(C3C(C#N)=C(C)N(C)C(C)=C3C#N)cc12` [BAY-3827, N-[5-(3,5-dicyano-1,2,6-trimethyl-4H-pyridin-4-yl)-6-fluoro-7-methyl-1H-indazol-3-yl]-2-ethylbenzamide]?
A: basal and insulin-stimulated phosphorylation of Akt and TBC1D4 (10 μM): not significantly affected; Raptor phosphorylation (varying doses, irrespective of MK-8722): dose-dependent reduction
